Read-outs that look alike come from different tables or passages of the source.
Experiments:
Spraque-Dawley rats = test: acute toxicity test in Spraque-Dawley rats; settings: rat, in vivo, po, 300 mg/kg
Description: Acute toxicity test of 6-(4-methylimidazol-1-yl)-(4H)-3,1-benzoxazin-2-one was conducted in Spraque-Dawley rats. The test compound was suspended in 5% arabic gum and was administered orally to six rats at a dose of 300 mg/kg body weight. […] Accordingly, LD 50 of the compound is 300 mg/kg or more.

[1] = system: blood-perfused sino-atrial preparation; test: sinus rate on blood-perfused sino-atrial preparation; set-up: species or system dog; settings: for activation at 0.003 mg: dose 3.0 ug
Summary of the method: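 Isolated right atrium from pentobarbital-anaesthetized, heparinized mongrel dogs, perfused through the SA-node artery with donor-dog carotid blood at a constant 100 mmHg, resting tension 2 g. Test compounds were injected into the perfusing blood near the catheter. Spontaneous sinus rate was expressed as percent of the pre-injection rate.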

[2] = system: blood perfused papillary muscle preparation; test: contractile power on blood perfused papillary muscle preparation; set-up: species or system dog; settings: Canis lupus familiaris, read-out: change of contractivity (%); for activation at 0.001 mg: dose 1.0 ug; for activation at 0.01 mg: dose 10.0 ug
Summary of the method: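 Dog papillary muscle perfused via anterior septal artery with heparinised donor blood at about 100 mmHg, paced at 120/min, resting tension 2 g. Compound injected into perfusing blood at 10–30 ul; inotropic effect expressed as percent change in isometric developed tension versus pre-dose.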

anesthetized cats = test: cardiotonic effect on anesthetized cats; assay type: in vivo, cat; settings: Felis catus; for change in vivo at 0.01 mg/kg: 0.01 mg/Kg iv; for change in vivo at 0.03 mg/kg: 0.03 mg/Kg iv; for change in vivo at 0.1 mg/kg: 0.1 mg/Kg iv
Description: Determination of cardiotonic effect on anesthetized cats: Male cats weighing about 3 kg were anesthetized with sodium pentobarbital (30 mg/kg, i.p.). The same anesthetic was infused intravenously at the does of 4 mg/kg/hr in order to maintain the anesthetic state and mechanically ventilated through a cuffed endotracheal tube, chest was opened by a midline incision and a catheter for measuring left ventricular pressure was inserted through apex into left ventricle and the left ventricular pressure was measured. LVdP/dt was determined by use of diffentiator from the left ventricular pressure. Systemic blood pressure was measured by the left femoral artery by a pressure transducer and heart rate was measured by a cardiotachometer triggered by blood pressure pulses. Test compound was injected into the femoral vein by use of cannule. After completion of the surgical procedures, the cats were allowed to recover about 30 minutes before drug administration. These compounds were dissolved in 0.9% physiological saline and diluted with saline. Solvent such as DMSO or DMF was also used, if necessary. Test compound of 0.1 ml/kg was used. Detailed method was reporated in J. Med. Chem. 30. 1279-87(1987).

ICR mouse = test: acute toxicity test in ICR mouse; assay type: in vivo; settings: intravenous, 30 mg/kg, five mice
Description: Acute toxicity test of 6-(4-methylimidazol-1-yl)-(4H)-3,1-benzothiazin-2-one was conducted in ICR mouse. The test compound was dissolved in a mixed solvent of saline and DMF (2:1) and was administered intravenously to five mice at a dose of 30 mg/kg body weight. […] Accordingly, LD50 of the compound is 30 mg/kg or more.

[3] = Canis lupus familiaris, read-out: change of sinus rate (%)

Row | SMILES | activation at 0.003 mg [1, 3] [%] | activation at 0.001 mg [2] [%] | activation at 0.01 mg [2] [%] | change in vivo at 0.01 mg/kg (anesthetized cats; read-out: HR (%)) [%] | change in vivo at 0.01 mg/kg (anesthetized cats; read-out: LV dp/dt (%)) [%] | change in vivo at 0.01 mg/kg (anesthetized cats; read-out: LVP (%)) [%] | change in vivo at 0.01 mg/kg (anesthetized cats; read-out: SBP (%)) [%] | change in vivo at 0.01 mg/kg (anesthetized cats; read-out: dBP) [%] | change in vivo at 0.01 mg/kg (anesthetized cats; read-out: mBP (%)) [%] | change in vivo at 0.03 mg/kg (anesthetized cats; read-out: HR (%)) [%] | change in vivo at 0.03 mg/kg (anesthetized cats; read-out: LV dp/dt (%)) [%] | change in vivo at 0.03 mg/kg (anesthetized cats; read-out: LVP (%)) [%] | change in vivo at 0.03 mg/kg (anesthetized cats; read-out: SBP (%)) [%] | change in vivo at 0.03 mg/kg (anesthetized cats; read-out: dBP) [%] | change in vivo at 0.03 mg/kg (anesthetized cats; read-out: mBP (%)) [%] | change in vivo at 0.1 mg/kg (anesthetized cats; read-out: HR (%)) [%] | change in vivo at 0.1 mg/kg (anesthetized cats; read-out: LV dp/dt (%)) [%] | change in vivo at 0.1 mg/kg (anesthetized cats; read-out: LVP (%)) [%] | change in vivo at 0.1 mg/kg (anesthetized cats; read-out: SBP (%)) [%] | change in vivo at 0.1 mg/kg (anesthetized cats; read-out: dBP) [%] | also measured
1 | Cc1cn(-c2ccc3c(c2)COC(=O)N3)cn1 [6-(4-methylimidazol-1-yl)(4H)-3,1-benzoxazin-2-one] | 2.52 | 2.94 | 30.4 | 1.25 | 29.6 | 7.69 | -4.55 | -7.14 | -6 | 1.88 | 85.2 | 23.1 | -9.12 | -10.7 | -10.2 | 6.25 | 113 | 30.8 | -15.9 | -14.3 | dead animals (Spraque-Dawley rats): no dead animal was found; activation at 0.001 mg ([1]; Canis lupus familiaris, dose 1.0 ug, read-out: change of sinus rate (%)): 0%; activation at 0.01 mg ([1]; Canis lupus familiaris, dose 10.0 ug, read-out: change of sinus rate (%)): 5.04%; change of sinus rate (%) ([1]; at the ED 30 dose): +5.17%; activation at 0.003 mg ([2]; dose 3.0 ug): 13%; change in vivo at 0.1 mg/kg (anesthetized cats; read-out: mBP (%)): -15%
2 | Cc1cn(-c2ccc3c(c2)CSC(=O)N3)cn1 [6-(4-methylimidazol-1-yl)-(4H)-3,1-benzothiazin-2-one] | 2.3 | 0 | 20.5 | 0 | 14.8 | 0 | -4 | -8.5 | -9.1 | 0.6 | 33.3 | 0 | -10 | -14.3 | -12.5 | 4.5 | 40.7 | 8.2 | -14 | -20 | activation at 0.03 mg ([1]; Canis lupus familiaris, dose 30.0 ug, read-out: change of sinus rate (%)): 5.6%; dead animals (ICR mouse): no dead animal was found; activation at 0.03 mg ([2]; dose 30.0 ug): 30.7%; change in vivo at 0.1 mg/kg (anesthetized cats; read-out: mBP (%)): -17.5%
